ChEMBL document CHEMBL1201862, “PubChem BioAssay data set” (2004)
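Step 1: Grow cells in 96-well plates. Step 2: Expose to compound for 48 hours at 5 concentrations. Step 3: Interpolate endpoints linearly; if unreached, use highest concentration. Abbreviation: GI50, concentration required for 50% inhibition of growth.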 The source made the active and inactive calls. Rule as the data show it: active = GI50 up to about 1.1 µM and inactive = higher.

Legend:
Assay in all cases: DTP human tumour cell line panel, 48 h
NCI/ADR-RES = test system: NCI/ADR-RES
SF-268 = test system: SF-268
786-0 = test system: 786-0
NCI-H226 = test system: NCI-H226
KM12 = test system: KM12
MDA-N = test system: MDA-N
HOP-62 = test system: HOP-62
HOP-92 = test system: HOP-92
SK-MEL-28 = test system: SK-MEL-28
CAKI-1 = test system: CAKI-1
IGROV-1 = test system: IGROV-1
HT-29 = test system: HT-29
K562 = test system: K562
NCI-H23 = test system: NCI-H23
DU-145 = test system: DU-145
LOX IMVI = test system: LOX IMVI
HCT-15 = test system: HCT-15
COLO 205 = test system: COLO 205
HL-60 = test system: HL-60
SNB-19 = test system: SNB-19

Structure (SMILES) | GI50 (NCI/ADR-RES) | GI50 (SF-268) | GI50 (786-0) | GI50 (NCI-H226) | GI50 (KM12) | GI50 (MDA-N) | GI50 (HOP-62) | GI50 (HOP-92) | GI50 (SK-MEL-28) | GI50 (CAKI-1) | GI50 (IGROV-1) | GI50 (HT-29) | GI50 (K562) | GI50 (NCI-H23) | GI50 (DU-145) | GI50 (LOX IMVI) | GI50 (HCT-15) [µM] | GI50 (COLO 205) | GI50 (HL-60) | GI50 (SNB-19)
O=C(O)CCc1ccc(-c2ccccc2)[nH]1 | > 100 µM (inactive) | > 100 µM (inactive) | > 100 µM (inactive) | > 100 µM (inactive) | > 100 µM (inactive) | > 100 µM (inactive) | > 100 µM (inactive) | > 100 µM (inactive) | > 100 µM (inactive) | > 100 µM (inactive) | > 100 µM (inactive) | > 100 µM (inactive) | > 100 µM (inactive) | > 100 µM (inactive) | > 100 µM (inactive) | > 100 µM (inactive) | > 100 | > 100 µM (inactive) | > 100 µM (inactive) | > 100 µM (inactive)
COP(C)(=O)C(Cc1c[nH]c2ccccc12)NC(=O)OCc1ccccc1 (stereo not given) | > 100 µM (inactive) | > 100 µM (inactive) | > 100 µM (inactive) | > 100 µM (inactive) | > 100 µM (inactive) | > 100 µM (inactive) | > 100 µM (inactive) | > 100 µM (inactive) | > 100 µM (inactive) | > 100 µM (inactive) | > 100 µM (inactive) | > 100 µM (inactive) | > 100 µM (inactive) | > 100 µM (inactive) | > 100 µM (inactive) | > 100 µM (inactive) | > 100 | > 100 µM (inactive) | > 100 µM (inactive) | > 100 µM (inactive)
N#CCN(Cc1ccccc1)[C@@H]1CCC[C@]1(O)C#Cc1ccc2c(c1)OCO2 | 19.5 µM (inactive) | 19.1 µM (inactive) | 15.8 µM (inactive) | 18.6 µM (inactive) | 15.2 µM (inactive) | 17.5 µM (inactive) | 16.2 µM (inactive) | 12.9 µM (inactive) | 17.1 µM (inactive) | 22.2 µM (inactive) | 17.1 µM (inactive) | 18.2 µM (inactive) | 20.3 µM (inactive) | 16.4 µM (inactive) | 27.4 µM (inactive) | 15.9 µM (inactive) | 21.8 | 17.4 µM (inactive) | 20.6 µM (inactive) | 20.7 µM (inactive)
CC1=C2CC(C)(C)/C=C\C(=O)/C(C)=C\C3=C[C@H](C)C[C@]3(O2)C1=O | 0.537 µM (active) | 6.78 µM (inactive) | 0.516 µM (active) | 3.46 µM (inactive) | 2.21 µM (inactive) | 0.914 µM (active) | 6.43 µM (inactive) | 1.09 µM (active) | 0.798 µM (active) | 0.255 µM (active) | 1.56 µM (inactive) | 0.927 µM (active) | 1.51 µM (inactive) | 1.08 µM (active) | 4.67 µM (inactive) | 0.741 µM (active) | 0.627 | 0.902 µM (active) | 0.139 µM (active) | 17.2 µM (inactive)
C=C1CN(C2=NCCO2)C1 | > 100 µM (inactive) | > 100 µM (inactive) | > 100 µM (inactive) | > 100 µM (inactive) | > 100 µM (inactive) | > 100 µM (inactive) | > 100 µM (inactive) | > 100 µM (inactive) | > 100 µM (inactive) | > 100 µM (inactive) | > 100 µM (inactive) | > 100 µM (inactive) | > 100 µM (inactive) | > 100 µM (inactive) | > 100 µM (inactive) | > 100 µM (inactive) | > 100 | > 100 µM (inactive) | > 100 µM (inactive) | > 100 µM (inactive)
